Experimental data taken from patent US20250186556A1, “COMBINATION THERAPY WITH IMMUNOMODULATORS, DYRK1A INHIBITORS, AND GLP1R AGONISTS FOR TYPE 1 DIABETES TREATMENT” (ICAHN SCHOOL OF MEDICINE AT MOUNT SINAI, priority 2022, published 2025).

Tests used:
[1] = system: human β-cells; assay: Human islet single cell RNA sequencing (scRNA-seq), gene set enrichment in β-cells; format: cell-based; conditions: human islets, 10 μM harmine, 10 nM exendin-4, 6 h
Experimental: After treatment, human islets were washed twice with PBS and centrifuged at 300 rpm for three min. After removing the PBS, 200 μl pre-warmed Accutase was added and the islets were incubated at 37° C. for 10 minutes. Then, complete RPMI medium was added, the sample centrifuged at 1000 rpm for three min, and the pellet was washed with PBS. Cells were then resuspended in binding buffer (Miltenyi Biotec) and dead cell removal beads, the tube was incubated for 15 minutes at room temperature and the cell suspension applied onto the dead cell removal column (Miltenyi Biotec), which was attached to the MACS separator. […]
Cell samples were prepared according to the user guide of 10× Genomics Single Cell 3′ V3.1 Reagent Kit, processed with 10× Genomic Chromium Controller for partitioning and barcoding, followed by the cDNA library generation. The total cell concentration analyzed by the Countess 3 was then sequenced by the NovaSeq 6000 System (Illumina). […] After the 10×, h5 format file was generated, the data were analyzed on the R language platform with Seurat package V.4.0. […]
After assessment of the data quality control parameters as above, integrated scRNA-data were created with Seurat's SCTransform function without allocating method parameters. […] After enrichment scores were calculated for each single cell, they were added to the Meta data for analysis and visualization by dotplot.

[2] = system: human β-cells; assay: Analysis of human β-cell death in vitro (TUNEL/insulin staining); format: cell-based; conditions: 10 μM harmine, 10 nM exendin-4, 24 hours, TUNEL
Experimental: Briefly, after washing the human islets with PBS twice, 200 μl pre-warmed Accutase (Corning) was added, and the tube was incubated at 37° C. for 10 minutes. Then, complete RPMI medium (RPMI with 5 mM D-glucose, 10% FBS, 100 units/ml penicillin, and 100 μg/ml streptomycin) was added, the sample was centrifuged at 1000 rpm for three min, the pellet was washed with PBS and centrifuged again at 1000 rpm for three min. The pellet was resuspended in complete RPMI medium and 50,000 cells/well were plated on 12-mm glass coverslips, placed in 24-well plates, and incubated at 37° C. and 5% CO2 for 24 hours. […] Cells were incubated at 37° C. and 5% CO2 for 24 hours. Then, cells were fixed in 4% paraformaldehyde and TUNEL (cell death marker) and insulin staining were performed using the DeadEnd Fluorometric TUNEL System (Promega), anti-proinsulin/C-peptide antibody (DSHB), and DAPI for nuclei detection. A minimum of 1,500 β-cells were examined per coverslip.

[3] = system: patients with new-onset type 1 diabetes; conditions: for up to seven years following initial diagnosis; cited from earlier work

Molecule	inhibitory HLA-E expression in β-cells treated with cytokines [1]	expression of pro-inflammatory, intrinsic and extrinsic apoptosis, HLA class I, chemokines CXCL9-11 and interferon regulatory factor 1-9 signaling pathways in β-cells treated with cytokines ([1]; GSEA)	human β-cell death induced by thapsigargin ([2]; 500 nM thapsigargin)	human β-cell death induced by cytokines ([2]; cytokines IL-1β, TNF-α, IFN-γ)	loss of β-cell function [3]
COc1ccc2c(c1)[nH]c1c(C)nccc12 [harmine]	increased	not with the drugs alone	non-significant, partial protection	non-significant, partial protection	
teplizumab: humanized, non-mitogenic aglycosylated anti-CD3 monoclonal antibody					reduces the loss of β-cell function
